# Laboratory results published in ChEMBL document CHEMBL1649210, “Identification of the aminoglycoside resistance determinants armA and rmtC among non-Typhi Salmonella isolates from humans in the United States” (2009).
# Assays:
# [1] = (§1) Antimicrobial activity against Salmonella enterica serotype Stanley isolate AM04864 expressing armA rRNA methyltransferase gene by broth microdilution method; type: functional, Salmonella enterica subsp. enterica serovar Stanley
# [2] = (§2) Antimicrobial activity against Salmonella enterica serotype Virchow isolate AM23818 expressing rmtC rRNA methyltransferase gene by broth microdilution method; type: functional, Salmonella enterica subsp. enterica serovar Virchow
# [3] = tested on: Salmonella enterica subsp. enterica serovar Stanley; test: as §1; type: functional
# [4] = tested on: Salmonella enterica subsp. enterica serovar Virchow; test: as §2; type: functional
Molecule,MIC [1],MIC [2],MIC [3],MIC [4]
NCC[C@H](O)C(=O)N[C@@H]1C[C@H](N)[C@@H](O[C@H]2O[C@H](CN)[C@@H](O)[C@H](O)[C@H]2O)[C@H](O)[C@H]1O[C@H]1O[C@H](CO)[C@@H](O)[C@H](N)[C@H]1O [AMIKACIN],> 64 µg/mL,> 64 µg/mL,,
NC[C@H]1O[C@H](O[C@H]2[C@H](O)[C@@H](O[C@H]3O[C@H](CO)[C@@H](O)[C@H](N)[C@H]3O)[C@H](N)C[C@@H]2N)[C@H](O)[C@@H](O)[C@@H]1O [KANAMYCIN],> 64 µg/mL,> 64 µg/mL,,
GENTAMICIN,,,> 16 µg/mL,> 16 µg/mL
